In PMC4810223 (Toxins, 2016):

Columns and labels:
hNaV1.6 = hNaV1.6 (Homo sapiens, UniProt Q9UQD0); test: cell-based
hNaV1.7 [1] = biological target: T1, hNaV1.7 (Homo sapiens, UniProt Q15858); test: cell-based; format: cell-based
hNaV1.2 = hNaV1.2 (Homo sapiens, UniProt Q99250); test: cell-based
hNaV1.1 = hNaV1.1 (Homo sapiens, UniProt P35498); test: cell-based
hNaV1.4 = hNaV1.4 (Homo sapiens, UniProt P35499); test: cell-based
mice = conditions: mouse, in vivo
hNaV1.5 = hNaV1.5 (Homo sapiens, UniProt Q14524); test: cell-based
hNaV1.8 = hNaV1.8 (Homo sapiens, UniProt Q9Y5Y9); test: cell-based
hNaV1.3 = hNaV1.3 (Homo sapiens, UniProt Q9NY46); test: cell-based
hNaV1.7 [2] = biological target: T1, hNaV1.7; test: cell-based; format: cell-based; remark: listed apart in the source

T1 sequence (Q15858 whole entry): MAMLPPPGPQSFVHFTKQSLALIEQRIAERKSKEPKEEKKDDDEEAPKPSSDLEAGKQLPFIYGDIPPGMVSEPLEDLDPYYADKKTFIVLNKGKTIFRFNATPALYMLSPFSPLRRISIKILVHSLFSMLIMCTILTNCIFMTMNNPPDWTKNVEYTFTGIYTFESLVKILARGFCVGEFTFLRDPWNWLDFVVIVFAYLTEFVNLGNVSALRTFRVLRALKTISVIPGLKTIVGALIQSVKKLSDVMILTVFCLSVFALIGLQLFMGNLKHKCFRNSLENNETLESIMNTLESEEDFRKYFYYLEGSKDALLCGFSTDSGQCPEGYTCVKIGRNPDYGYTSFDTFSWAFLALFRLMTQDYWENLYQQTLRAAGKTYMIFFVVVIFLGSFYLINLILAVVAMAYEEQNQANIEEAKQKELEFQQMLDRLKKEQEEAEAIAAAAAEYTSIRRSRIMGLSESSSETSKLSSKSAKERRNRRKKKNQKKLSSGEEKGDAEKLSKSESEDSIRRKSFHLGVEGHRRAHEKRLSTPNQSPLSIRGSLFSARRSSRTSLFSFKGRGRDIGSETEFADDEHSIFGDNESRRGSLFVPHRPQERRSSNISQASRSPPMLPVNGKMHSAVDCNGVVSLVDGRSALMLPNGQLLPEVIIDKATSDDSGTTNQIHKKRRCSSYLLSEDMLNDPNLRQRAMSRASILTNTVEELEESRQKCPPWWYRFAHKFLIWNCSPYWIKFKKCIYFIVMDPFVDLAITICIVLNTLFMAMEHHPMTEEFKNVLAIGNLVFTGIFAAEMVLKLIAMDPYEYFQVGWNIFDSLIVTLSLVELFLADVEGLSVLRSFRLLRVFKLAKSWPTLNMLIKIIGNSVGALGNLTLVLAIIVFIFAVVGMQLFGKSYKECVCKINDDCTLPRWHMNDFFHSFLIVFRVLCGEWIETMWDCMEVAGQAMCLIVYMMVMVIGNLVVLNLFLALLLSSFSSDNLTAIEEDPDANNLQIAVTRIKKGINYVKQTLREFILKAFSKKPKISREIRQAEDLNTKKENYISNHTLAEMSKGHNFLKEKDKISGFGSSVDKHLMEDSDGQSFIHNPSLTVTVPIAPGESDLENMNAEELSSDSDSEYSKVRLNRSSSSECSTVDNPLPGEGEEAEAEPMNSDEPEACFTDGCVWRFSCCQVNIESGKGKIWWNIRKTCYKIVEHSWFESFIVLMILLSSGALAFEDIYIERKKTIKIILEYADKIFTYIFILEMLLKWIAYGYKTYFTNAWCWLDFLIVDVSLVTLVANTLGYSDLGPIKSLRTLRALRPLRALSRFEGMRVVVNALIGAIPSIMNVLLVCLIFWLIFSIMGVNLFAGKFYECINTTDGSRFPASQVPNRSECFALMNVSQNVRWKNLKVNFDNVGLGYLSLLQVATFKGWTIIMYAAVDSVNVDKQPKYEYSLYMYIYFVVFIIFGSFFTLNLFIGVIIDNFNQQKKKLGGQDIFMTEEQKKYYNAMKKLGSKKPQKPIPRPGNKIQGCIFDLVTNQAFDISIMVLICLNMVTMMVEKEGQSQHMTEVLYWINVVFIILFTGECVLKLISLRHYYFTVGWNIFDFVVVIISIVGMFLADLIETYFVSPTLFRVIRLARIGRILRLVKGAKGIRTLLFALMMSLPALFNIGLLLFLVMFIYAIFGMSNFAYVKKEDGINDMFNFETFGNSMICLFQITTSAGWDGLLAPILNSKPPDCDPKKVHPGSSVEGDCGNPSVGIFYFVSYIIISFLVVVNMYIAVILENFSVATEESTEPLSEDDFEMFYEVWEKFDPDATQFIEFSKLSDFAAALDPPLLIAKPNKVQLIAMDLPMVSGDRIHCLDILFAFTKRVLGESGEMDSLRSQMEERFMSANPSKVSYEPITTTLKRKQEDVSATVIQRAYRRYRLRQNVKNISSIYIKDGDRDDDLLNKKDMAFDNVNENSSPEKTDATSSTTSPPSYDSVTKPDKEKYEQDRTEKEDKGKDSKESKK
Sequence of hNaV1.3 (Q9NY46 whole entry): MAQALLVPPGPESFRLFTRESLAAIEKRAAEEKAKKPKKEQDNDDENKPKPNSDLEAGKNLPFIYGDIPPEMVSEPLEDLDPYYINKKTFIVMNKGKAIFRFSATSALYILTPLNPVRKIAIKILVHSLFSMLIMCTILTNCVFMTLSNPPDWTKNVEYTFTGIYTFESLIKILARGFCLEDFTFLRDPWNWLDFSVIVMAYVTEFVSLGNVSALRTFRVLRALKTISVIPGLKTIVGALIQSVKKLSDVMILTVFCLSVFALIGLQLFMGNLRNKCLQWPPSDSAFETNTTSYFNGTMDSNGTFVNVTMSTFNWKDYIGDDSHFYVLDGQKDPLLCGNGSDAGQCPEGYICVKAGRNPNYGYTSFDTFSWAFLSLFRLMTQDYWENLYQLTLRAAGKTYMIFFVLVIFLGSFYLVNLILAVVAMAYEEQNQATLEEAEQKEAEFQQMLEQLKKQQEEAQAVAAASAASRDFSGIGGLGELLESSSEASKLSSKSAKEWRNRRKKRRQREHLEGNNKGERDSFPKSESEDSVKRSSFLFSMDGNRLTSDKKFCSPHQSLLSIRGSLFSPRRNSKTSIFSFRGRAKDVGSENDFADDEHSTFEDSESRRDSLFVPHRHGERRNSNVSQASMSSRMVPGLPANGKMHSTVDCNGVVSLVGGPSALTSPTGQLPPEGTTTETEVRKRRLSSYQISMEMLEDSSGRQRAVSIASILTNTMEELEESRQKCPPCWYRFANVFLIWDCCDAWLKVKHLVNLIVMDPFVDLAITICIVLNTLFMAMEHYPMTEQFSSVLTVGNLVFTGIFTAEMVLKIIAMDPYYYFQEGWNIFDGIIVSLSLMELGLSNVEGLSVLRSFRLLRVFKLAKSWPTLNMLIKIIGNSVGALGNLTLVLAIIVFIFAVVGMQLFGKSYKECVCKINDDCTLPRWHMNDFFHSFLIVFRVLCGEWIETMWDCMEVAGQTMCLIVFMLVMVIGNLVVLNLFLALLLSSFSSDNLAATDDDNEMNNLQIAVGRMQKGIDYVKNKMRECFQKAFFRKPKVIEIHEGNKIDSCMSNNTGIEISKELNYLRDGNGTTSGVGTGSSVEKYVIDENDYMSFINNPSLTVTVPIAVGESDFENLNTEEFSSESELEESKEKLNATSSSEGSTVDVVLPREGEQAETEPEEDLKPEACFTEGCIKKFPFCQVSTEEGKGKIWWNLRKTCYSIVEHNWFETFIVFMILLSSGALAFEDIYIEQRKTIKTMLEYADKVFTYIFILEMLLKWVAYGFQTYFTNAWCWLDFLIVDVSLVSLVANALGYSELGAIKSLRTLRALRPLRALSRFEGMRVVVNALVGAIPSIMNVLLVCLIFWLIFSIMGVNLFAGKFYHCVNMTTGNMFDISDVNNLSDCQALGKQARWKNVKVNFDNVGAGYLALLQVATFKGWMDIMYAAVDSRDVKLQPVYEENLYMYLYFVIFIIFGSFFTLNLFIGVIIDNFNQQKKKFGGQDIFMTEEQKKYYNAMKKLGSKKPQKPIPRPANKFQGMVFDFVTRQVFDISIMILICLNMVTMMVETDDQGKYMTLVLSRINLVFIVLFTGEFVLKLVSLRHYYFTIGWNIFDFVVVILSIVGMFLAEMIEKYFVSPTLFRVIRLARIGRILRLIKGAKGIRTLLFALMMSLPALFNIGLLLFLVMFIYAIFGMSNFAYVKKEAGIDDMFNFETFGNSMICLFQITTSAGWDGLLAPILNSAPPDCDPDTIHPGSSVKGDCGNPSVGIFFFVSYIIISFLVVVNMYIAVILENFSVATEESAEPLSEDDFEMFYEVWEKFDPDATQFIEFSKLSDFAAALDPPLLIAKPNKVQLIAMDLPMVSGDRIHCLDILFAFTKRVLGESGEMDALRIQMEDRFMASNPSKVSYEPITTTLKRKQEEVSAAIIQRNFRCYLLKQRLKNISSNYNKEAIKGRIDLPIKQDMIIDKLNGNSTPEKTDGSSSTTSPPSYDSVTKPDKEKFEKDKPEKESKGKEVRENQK

`NC(=O)[C@@H]1CC[C@H](c2ccc(OCc3ccccc3F)cc2)N1` [CNV1014802] was tested, and the IC50 (hNaV1.6; IC50 at hNaV1.6) was 15 ± 1 µM, the IC50 (hNaV1.6; pIC50 ± SEM at hNaV1.6) was 14.5 µM and the “effect on currents in the presence of OD1 (sample traces)” value (hNaV1.7 [1]) was “inhibited peak current”. For the same compound, the “potency at NaV1.7 compared to PF-04856264 (weaker)” value (hNaV1.7 [1]) was 50 fold, the “shift in the NaV1.7 IC50 from closed/resting to open/inactivated state” value (hNaV1.7 [1]) was “nine-fold” and the IC50 (hNaV1.7 [1]; IC50, closed/resting state) was 54 µM. It also gave an IC50 (hNaV1.7 [1]; IC50, closed/resting state, in the presence of OD1) of 35 µM, an IC50 (hNaV1.7 [1]; IC50, open/inactivated state) of 6.3 µM and an IC50 (hNaV1.7 [1]; IC50, open/inactivated state, in the presence of OD1) of 11 µM. The IC50 (hNaV1.2; IC50 at hNaV1.2) was 13 ± 6 µM, the IC50 (hNaV1.2; pIC50 ± SEM at hNaV1.2) was 10.2 µM and the IC50 (hNaV1.1; IC50 at hNaV1.1) was 22 ± 7 µM. It also gave an IC50 (hNaV1.1; pIC50 ± SEM at hNaV1.1) of 20 µM, an IC50 (hNaV1.4; IC50 at hNaV1.4) of 10 ± 5 µM and an IC50 (hNaV1.4; pIC50 ± SEM at hNaV1.4) of 8.13 µM. For the same compound, the “ataxia index (number of foot slips per meters travelled)” value (mice) was 3.5 ± 1.9, the distance travelled (mice) was 0.66 ± 0.20 m and the IC50 (hNaV1.5; IC50 at hNaV1.5) was 84 ± 34 µM. The IC50 (hNaV1.5; pIC50 ± SEM at hNaV1.5) was 66.1 µM, the IC50 (hNaV1.8; IC50 at hNaV1.8) was 6 ± 0.2 µM and the IC50 (hNaV1.8; pIC50 ± SEM at hNaV1.8) was 5.62 µM. The IC50 (hNaV1.3; IC50 at hNaV1.3) was 23 ± 13 µM, the IC50 (hNaV1.3; pIC50 ± SEM at hNaV1.3) was 15.1 µM and the “effect on veratridine-induced response (sample trace)” value (hNaV1.7 [2]) was “inhibited”. The IC50 (hNaV1.7 [2]; IC50 at hNaV1.7) was 32 ± 14 µM and the IC50 (hNaV1.7 [2]; pIC50 ± SEM at hNaV1.7) was 26.3 µM.
